Data published in patent US20240099214A1, “PLANT DEFENCE GENE EXPRESSION” (UPL Corporation Limited, priority 2021, published 2024).

Legend:
[1] = tested on: 1-aminocryclopropane-1-carboxylate oxidase-like protein (gene 6, Solyc11g072100.1); experiment: qRT-PCR expression of gene 6 in tomato leaves; assay type: in vivo, Tomato ecotype corbarino; design: key: relative expression normalized to a-tubulin housekeeping gene
Protocol: (§1) Tomato ecotype “corbarino” reported to be susceptible to TSWV infection was used in the experiment. Plants were grown in pots in a climatic chamber with a photoperiod of 16/8 hour at 25° C.
(§2) The viral strain (TSWV PV PV-0393) was utilized in the experiment. The virus was mechanically inoculated and propagated on tomato “corbarino”. The inoculum was prepared in an ice-cooled mortar grounding 1 gr of infected tomato tissue in 10 ml of Na-phosphate buffer 0.01M. The fresh prepared inoculum was stored in ice before use. Tomato plants at BBCH16 were dusted with Carborundum 600 mesh and selected leaves were rubbed with some droplets of inoculum. After 5 min. plants were sprayed with sterile water to remove the excess of inoculum and preserve the cell turgor.
(§3) Four treatments were compared: i) Mock inoculated; ii) TSWV; iii) 0.25% Laminarin; iv) 0.25% Laminarin+TSWV. In the last treatment the virus was inoculated 24 hrs after the laminarin application.
(§4) Total RNA was extracted from systemic infected tomato leaves by using the Quick-RNA Plant Kit (Zymo Research) following the manufacturer instructions. The extractions were carried out using three plants after 12 h, 24 h, 48 h, 72 h, 7 days after inoculation. Leaves were instantly frozen in liquid nitrogen after cutting to avoid any deterioration of the sample as well as any defense reaction. The RNA concentration was quantified by measuring the absorbance at 260 nm using a Nanodrop 2000 (Thermofisher). The purity of all of the RNA samples was assessed at an absorbance ratio of OD260/280 and OD260/230, while its structural integrity was checked by agarose gel electrophoresis. Only high-quality RNA with OD 260/280 and OD 260/230>2 was used for subsequent steps. Single-stranded cDNA was synthesized from 1 μg of total RNA using an iScript™ Select cDNA Synthesis Kit and random hexamers as primers (Bio-Rad, Milan, Italy), according to the manufacturer's instructions. Three biological replicates were created from the 3 leaves collected to test 15 genes. Alpha tubulin was used as reference gene.
(§5) qPCR reactions were performed with BioRad (Applied Biosystems, Foster City, CA, USA) using SYBR R Green. Each reaction was performed in 20 μl containing 10 μl of 2× Power SYBR Green PCR Master Mix (Life Technologies), 0.2-0.3 μM primers and cDNA samples diluted 1:20. Each qPCR reaction was performed in triplicate. Reactions were run using the cycling parameter described previously (Reid et al., 2006) and the qPCR data were analyzed by the Ct method (Pfaffl, 2001). In order to analyze the qPCR data, a-tubulin gene was used as housekeeping to determine the relative expression level of the other genes analyzed in this work. For the determination of qPCR efficiency of each primer pairs, a standard curve was performed using the following cDNA dilutions: 1:4, 1:16, 1:64; 1:256 and 1:1024. Every measurement was made in triplicate. The corresponding qPCR efficiencies (E) were calculated for every primer pair with the software 7300 System SDS software (Applied Biosystems, Foster City, CA, USA) according to the equation E=(10−1/slope−1)×100 (Rutledge and Stewart, 2008).
(§6) The significance of the differences between the gene expressions levels were compared by one-way ANOVA (p=0.01) and the means were separated by Tukey post-hoc test using SPSS ver.26 ([…]).

[2] = tested on: Hypersensitive response assisting protein (gene 7, Solyc07g006570.2); experiment: qRT-PCR expression of gene 7 in tomato leaves; assay type: in vivo, Tomato ecotype corbarino; design: key to RQ1 / RQ2 / RQ3 / RQ mean: relative expression normalized to a-tubulin housekeeping gene
Protocol: as §1, §2, §3, §4, §5, §6

In the case of laminarin, the RQ1 ([1]; 12 hr, Laminarin alone) is reported as 0.9088, the RQ2 ([1]; 12 hr, Laminarin alone) is reported as 0.971 and the RQ3 ([1]; 12 hr, Laminarin alone) is reported as 0.8924. The RQ mean ([1]; 12 hr, Laminarin alone) was 0.9241, the RQ1 ([1]; 24 hr, Laminarin + virus) was 13.422 and the RQ2 ([1]; 24 hr, Laminarin + virus) was 17.528. For the same substance, the RQ3 ([1]; 24 hr, Laminarin + virus) was 12.610, the RQ mean ([1]; 24 hr, Laminarin + virus) was 14.520 and the RQ1 ([1]; 24 hr, Laminarin alone) was 16.709. The RQ2 ([1]; 24 hr, Laminarin alone) was 18.603, the RQ3 ([1]; 24 hr, Laminarin alone) was 0.8182 and the RQ mean ([1]; 24 hr, Laminarin alone) was 14.498. For the same substance, the RQ1 ([1]; 48 hr, Laminarin + virus) was 14.823, the RQ2 ([1]; 48 hr, Laminarin + virus) was 17.395 and the RQ3 ([1]; 48 hr, Laminarin + virus) was 0.9742. It also gave an RQ mean ([1]; 48 hr, Laminarin + virus) of 13.987, an RQ1 ([1]; 48 hr, Laminarin alone) of 16.033 and an RQ2 ([1]; 48 hr, Laminarin alone) of 16.927. The RQ3 ([1]; 48 hr, Laminarin alone) was 10.675, the RQ mean ([1]; 48 hr, Laminarin alone) was 14.545 and the RQ1 ([1]; 72 hr, Laminarin + virus) was 26.404. It also gave an RQ2 ([1]; 72 hr, Laminarin + virus) of 20.406, an RQ3 ([1]; 72 hr, Laminarin + virus) of 19.154 and an RQ mean ([1]; 72 hr, Laminarin + virus) of 21.988. For the same substance, the RQ1 ([1]; 72 hr, Laminarin alone) was 27.013, the RQ2 ([1]; 72 hr, Laminarin alone) was 20.615 and the RQ3 ([1]; 72 hr, Laminarin alone) was 19.604. For the same substance, the RQ mean ([1]; 72 hr, Laminarin alone) was 22.410, the RQ1 ([2]; 12 hr, Laminarin + virus) was 12.106 and the RQ2 ([2]; 12 hr, Laminarin + virus) was 0.8295. It also gave an RQ3 ([2]; 12 hr, Laminarin + virus) of 10.421, an RQ mean ([2]; 12 hr, Laminarin + virus) of 10.274 and an RQ1 ([2]; 12 hr, Laminarin alone) of 0.9749. For the same substance, the RQ2 ([2]; 12 hr, Laminarin alone) was 0.8446, the RQ3 ([2]; 12 hr, Laminarin alone) was 0.8747 and the RQ mean ([2]; 12 hr, Laminarin alone) was 0.8981. It also gave an RQ1 ([2]; 24 hr, Laminarin + virus) of 13.380, an RQ2 ([2]; 24 hr, Laminarin + virus) of 12.897 and an RQ3 ([2]; 24 hr, Laminarin + virus) of 10.449. It also gave an RQ mean ([2]; 24 hr, Laminarin + virus) of 12.242, an RQ1 ([2]; 24 hr, Laminarin alone) of 11.623 and an RQ2 ([2]; 24 hr, Laminarin alone) of 12.446. The RQ3 ([2]; 24 hr, Laminarin alone) was 12.085, the RQ mean ([2]; 24 hr, Laminarin alone) was 12.051 and the “gene 7 expression compared to TSWV treatment” value ([2]; 48 hr, 0.25% laminarin + TSWV inoculated 24 hrs later) was “inverted”. For the same substance, the “gene 7 expression compared to TSWV treatment” value ([2]; 48 hr, 0.25% laminarin alone) was “inverted”, the RQ1 ([2]; 48 hr, Laminarin + virus) was 0.7159 and the RQ2 ([2]; 48 hr, Laminarin + virus) was 0.5334. It also gave an RQ3 ([2]; 48 hr, Laminarin + virus) of 0.8167, an RQ mean ([2]; 48 hr, Laminarin + virus) of 0.6886 and an RQ1 ([2]; 48 hr, Laminarin alone) of 0.7103. The RQ2 ([2]; 48 hr, Laminarin alone) was 0.7130, the RQ3 ([2]; 48 hr, Laminarin alone) was 0.6351 and the RQ mean ([2]; 48 hr, Laminarin alone) was 0.6861. The RQ1 ([2]; 72 hr, Laminarin + virus) was 19.008, the RQ2 ([2]; 72 hr, Laminarin + virus) was 20.416 and the RQ3 ([2]; 72 hr, Laminarin + virus) was 14.535. For the same substance, the RQ mean ([2]; 72 hr, Laminarin + virus) was 17.986, the RQ1 ([2]; 72 hr, Laminarin alone) was 10.549 and the RQ2 ([2]; 72 hr, Laminarin alone) was 0.4677. For the same substance, the RQ3 ([2]; 72 hr, Laminarin alone) was 11.927, the RQ mean ([2]; 72 hr, Laminarin alone) was 0.9051 and the “gene 7 overexpression compared to TSWV treatment” value ([2]; 72 hr, other treatments (laminarin alone, laminarin+TSWV) versus TSWV) was “overexpression induced by the TSWV is higher compared to the other treatments”.
